Measured values taken from ChEMBL document CHEMBL6096689, “Structure-Guided Development of ClpP Agonists with Potent Therapeutic Activities against Staphylococcus aureus Infection” (J Med Chem, 2025).
Converted amounts (≈) assume the structure as drawn.

Experiments:
Staphylococcus aureus [1] = experiment: microbe, parasite or virus in culture; format: functional; conditions: Newman, time 18 hrs
Description: Antibacterial activity against Staphylococcus aureus Newman assessed as inhibition of visible growth of bacteria incubated for 18 hrs by absorbance based analysis

[2] = biological target: T1, ATP-dependent Clp protease proteolytic subunit (Staphylococcus aureus (strain NCTC 8325), UniProt Q2G036); experiment: Agonist activity at Staphylococcus aureus ClpP extracted from Escherichia coli BL21 (DE3) cells using alpha-casein as substrate assessed as substrate hydrolysis preincubated for 15 mins followed by substrate addition and measured after 2 hrs by SDS-PAGE analysis
T1 sequence (Q2G036 whole entry): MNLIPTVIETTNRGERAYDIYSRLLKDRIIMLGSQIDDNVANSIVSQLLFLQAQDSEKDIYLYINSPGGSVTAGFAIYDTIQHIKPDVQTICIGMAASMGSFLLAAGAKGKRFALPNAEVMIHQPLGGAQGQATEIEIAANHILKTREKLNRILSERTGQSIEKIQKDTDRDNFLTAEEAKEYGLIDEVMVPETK

Staphylococcus aureus [3] = experiment: microbe, parasite or virus in culture; format: functional; conditions: time 18 hrs
Description: Antibacterial activity against multidrug-resistant Staphylococcus aureus clinical isolate XJ009 assessed as inhibition of visible growth of bacteria incubated for 18 hrs by absorbance based analysis

Staphylococcus aureus [4] = experiment: microbe, parasite or virus in culture; format: functional; conditions: USA300, time 18 hrs
Description: Antibacterial activity against methicillin-resistant Staphylococcus aureus USA300 assessed as inhibition of visible growth of bacteria incubated for 18 hrs by absorbance based analysis

Staphylococcus aureus [5] = experiment: microbe, parasite or virus in culture; format: functional; conditions: NRS-70, time 18 hrs
Description: Antibacterial activity against methicillin-resistant Staphylococcus aureus NRS-70 assessed as inhibition of visible growth of bacteria incubated for 18 hrs by absorbance based analysis

Staphylococcus aureus [6] = experiment: microbe, parasite or virus in culture; format: functional; conditions: time 18 hrs; remark: listed apart in the source
Description: Antibacterial activity against multidrug-resistant Staphylococcus aureus clinical isolate XJ052 assessed as inhibition of visible growth of bacteria incubated for 18 hrs by absorbance based analysis

Staphylococcus aureus [7] = experiment: microbe, parasite or virus in culture; format: functional; conditions: time 18 hrs; remark: listed apart in the source
Description: Antibacterial activity against multidrug-resistant Staphylococcus aureus clinical isolate XJ025 assessed as inhibition of visible growth of bacteria incubated for 18 hrs by absorbance based analysis

Staphylococcus aureus [8] = experiment: microbe, parasite or virus in culture; format: functional; conditions: NRS-108, time 18 hrs
Description: Antibacterial activity against methicillin-resistant Staphylococcus aureus NRS-108 assessed as inhibition of visible growth of bacteria incubated for 18 hrs by absorbance based analysis

Staphylococcus aureus [9] = experiment: microbe, parasite or virus in culture; format: functional; conditions: NRS-271, time 18 hrs
Description: Antibacterial activity against methicillin-resistant Staphylococcus aureus NRS-271 assessed as inhibition of visible growth of bacteria incubated for 18 hrs by absorbance based analysis

Staphylococcus aureus [10] = experiment: microbe, parasite or virus in culture; format: functional; conditions: time 18 hrs; remark: listed apart in the source
Description: Antibacterial activity against multidrug-resistant Staphylococcus aureus clinical isolate XJ051 assessed as inhibition of visible growth of bacteria incubated for 18 hrs by absorbance based analysis

Staphylococcus aureus [11] = experiment: microbe, parasite or virus in culture; format: functional; conditions: time 18 hrs; remark: listed apart in the source
Description: Antibacterial activity against multidrug-resistant Staphylococcus aureus clinical isolate XJ049 assessed as inhibition of visible growth of bacteria incubated for 18 hrs by absorbance based analysis

Staphylococcus aureus [12] = experiment: microbe, parasite or virus in culture; format: functional; conditions: NRS-1, time 18 hrs
Description: Antibacterial activity against methicillin-resistant Staphylococcus aureus NRS-1 assessed as inhibition of visible growth of bacteria incubated for 18 hrs by absorbance based analysis

Compound	MIC (Staphylococcus aureus [1])	EC50 [2]	further results
CC[C@H](C)[C@H]1C(=O)N(Cc2cccc3ccccc23)C[C@@H]2N(C(=O)NCC(C)(C)C)CCC(=O)N12	32 µg/mL (≈ 66.9 µM)	4900 nM	–
CC[C@H](C)[C@H]1C(=O)N(Cc2cccc3ccccc23)C[C@@H]2N(C(=O)NCCC3CC3)CCC(=O)N12	2 µg/mL (≈ 4.2 µM)	1900 nM	–
CC(C)C[C@H]1C(=O)N(Cc2cccc3ccccc23)C[C@@H]2N(C(=O)NCc3ccccc3)CCC(=O)N21	16 µg/mL (≈ 32.1 µM)	1200 nM	–
CC[C@H](C)[C@H]1C(=O)N(Cc2ccc(Cl)cc2Cl)C[C@@H]2N(C(=O)NCCCC(F)(F)F)CCC(=O)N12	32 µg/mL (≈ 59.5 µM)	1000 nM	–
CC[C@H](C)[C@H]1C(=O)N(Cc2ccc(F)c3ccccc23)C[C@@H]2N(C(=O)NCCCC(F)(F)F)CCC(=O)N12	0.5 µg/mL (≈ 0.932 µM)	1010 nM	–
CCCC(C)NC(=O)N1CCC(=O)N2[C@@H]([C@@H](C)CC)C(=O)N(Cc3cccc4ccccc34)C[C@H]12 (stereo partly drawn)	8 µg/mL (≈ 16.7 µM)	5200 nM	–
CC[C@H](C)[C@H]1C(=O)N(Cc2cccc3ccccc23)C[C@@H]2N(C(=O)NCCCC(F)(F)F)CCC(=O)N12	1 µg/mL (≈ 1.93 µM)	720 nM	–
CC[C@H](C)[C@H]1C(=O)N(Cc2cccc3ccccc23)C[C@@H]2N(C(=O)NCCCCl)CCC(=O)N12	4 µg/mL (≈ 8.25 µM)	1300 nM	–
CC[C@H]1OC(=O)[C@H](C)[C@@H](O[C@H]2C[C@@](C)(OC)[C@@H](O)[C@H](C)O2)[C@H](C)[C@@H](O[C@@H]2O[C@H](C)C[C@H](N(C)C)[C@H]2O)[C@](C)(O)C[C@@H](C)C(=O)[C@H](C)[C@@H](O)[C@]1(C)O [ERYTHROMYCIN]	0.13 µg/mL (≈ 0.177 µM)	–	MIC (Staphylococcus aureus [3]): > 128 µg/mL; MIC (Staphylococcus aureus [4]): 8 µg/mL (≈ 10.9 µM); MIC (Staphylococcus aureus [5]): > 128 µg/mL; MIC (Staphylococcus aureus [6]): > 128 µg/mL; MIC (Staphylococcus aureus [7]): 1 µg/mL (≈ 1.36 µM); MIC (Staphylococcus aureus [8]): > 128 µg/mL; MIC (Staphylococcus aureus [9]): 0.25 µg/mL (≈ 0.341 µM); MIC (Staphylococcus aureus [10]): 8 µg/mL (≈ 10.9 µM); MIC (Staphylococcus aureus [11]): > 128 µg/mL; MIC (Staphylococcus aureus [12]): > 128 µg/mL
CC[C@@H](C)[C@H]1C(=O)N(Cc2cccc3ccccc23)C[C@@H]2N(C(=O)NCc3ccc(Br)cc3)CCC(=O)N12	4 µg/mL (≈ 6.93 µM)	1200 nM	–
CSCC[C@H]1C(=O)N(Cc2cccc3ccccc23)C[C@@H]2N(C(=O)NCc3ccccc3)CCC(=O)N21	8 µg/mL (≈ 15.5 µM)	3100 nM	–
O=C1[C@H](CC2CCCC2)N2C(=O)CCN(C(=O)NCCCC(F)(F)F)[C@H]2CN1Cc1cccc2ccccc12	4 µg/mL (≈ 7.34 µM)	2200 nM	–
CC1(C)S[C@@H]2[C@H](NC(=O)[C@H](N)c3ccccc3)C(=O)N2[C@H]1C(=O)O [AMPICILLIN]	0.25 µg/mL (≈ 0.715 µM)	–	MIC (Staphylococcus aureus [3]): 64 µg/mL (≈ 183 µM); MIC (Staphylococcus aureus [5]): 4 µg/mL (≈ 11.4 µM); MIC (Staphylococcus aureus [6]): 64 µg/mL (≈ 183 µM); MIC (Staphylococcus aureus [7]): 64 µg/mL (≈ 183 µM); MIC (Staphylococcus aureus [8]): 4 µg/mL (≈ 11.4 µM); MIC (Staphylococcus aureus [9]): 32 µg/mL (≈ 91.6 µM); MIC (Staphylococcus aureus [10]): 128 µg/mL (≈ 366 µM); MIC (Staphylococcus aureus [11]): 64 µg/mL (≈ 183 µM); MIC (Staphylococcus aureus [12]): 32 µg/mL (≈ 91.6 µM)
C[C@H]1C(=O)N(Cc2cccc3ccccc23)C[C@@H]2N(C(=O)NCc3ccccc3)CCC(=O)N21	16 µg/mL (≈ 35 µM)	2500 nM	–
CCC[C@@H]1C[C@@H](C(=O)N[C@@H]([C@H]2O[C@H](SC)[C@H](O)[C@@H](O)[C@H]2O)[C@H](C)Cl)N(C)C1 [CLINDAMYCIN]	0.016 µg/mL (≈ 0.0376 µM)	–	MIC (Staphylococcus aureus [3]): 128 µg/mL (≈ 301 µM); MIC (Staphylococcus aureus [4]): 0.008 µg/mL (≈ 0.0188 µM); MIC (Staphylococcus aureus [5]): 128 µg/mL (≈ 301 µM); MIC (Staphylococcus aureus [6]): > 128 µg/mL; MIC (Staphylococcus aureus [7]): 0.016 µg/mL (≈ 0.0376 µM); MIC (Staphylococcus aureus [8]): 128 µg/mL (≈ 301 µM); MIC (Staphylococcus aureus [9]): 0.016 µg/mL (≈ 0.0376 µM); MIC (Staphylococcus aureus [10]): 0.016 µg/mL (≈ 0.0376 µM); MIC (Staphylococcus aureus [11]): > 128 µg/mL; MIC (Staphylococcus aureus [12]): 64 µg/mL (≈ 151 µM)
CC[C@H](C)[C@H]1C(=O)N(Cc2cccc3ccccc23)C[C@@H]2N(C(=O)NCCC(=O)OC)CCC(=O)N12	128 µg/mL (≈ 259 µM)	17300 nM	–
O=C1[C@H](CC2CCCCC2)N2C(=O)CCN(C(=O)NCCCC(F)(F)F)[C@H]2CN1Cc1cccc2ccccc12	2 µg/mL (≈ 3.58 µM)	1600 nM	–
CC[C@H](C)[C@H]1C(=O)N(Cc2cc(Cl)cc(Cl)c2)C[C@@H]2N(C(=O)NCCCC(F)(F)F)CCC(=O)N12	16 µg/mL (≈ 29.8 µM)	780 nM	–
CC[C@H](C)[C@H]1C(=O)N(Cc2cccc3ccccc23)C[C@@H]2N(C(=O)NCCc3ccco3)CCC(=O)N12	> 128 µg/mL	5200 nM	–
C=CC[C@H]1C(=O)N(Cc2cccc3ccccc23)C[C@@H]2N(C(=O)NCCCC(F)(F)F)CCC(=O)N21	4 µg/mL (≈ 7.96 µM)	1400 nM	–
CCC(C)CNC(=O)N1CCC(=O)N2[C@@H]([C@@H](C)CC)C(=O)N(Cc3cccc4ccccc34)C[C@H]12 (stereo partly drawn)	2 µg/mL (≈ 4.18 µM)	1800 nM	–

Compound	MIC (Staphylococcus aureus [1])	EC50 [2]	further results
O=C1[C@H](CC2CCC2)N2C(=O)CCN(C(=O)NCCCC(F)(F)F)[C@H]2CN1Cc1cccc2ccccc12	4 µg/mL (≈ 7.54 µM)	2000 nM	–
CCCCNC(=O)N1CCC(=O)N2[C@@H]([C@@H](C)CC)C(=O)N(Cc3cccc4ccccc34)C[C@H]12	2 µg/mL (≈ 4.3 µM)	1600 nM	–
CC[C@H](C)[C@H]1C(=O)N(Cc2cccc3ccccc23)C[C@@H]2N(C(=O)NCc3ccccc3)CCC(=O)N12	4 µg/mL (≈ 8.02 µM)	900 nM	–
CCCNC(=O)N1CCC(=O)N2[C@@H]([C@@H](C)CC)C(=O)N(Cc3cccc4ccccc34)C[C@H]12	16 µg/mL (≈ 35.5 µM)	2200 nM	–
C#CC[C@H]1C(=O)N(Cc2cccc3ccccc23)C[C@@H]2N(C(=O)NCCCC(F)(F)F)CCC(=O)N21	4 µg/mL (≈ 7.99 µM)	1900 nM	–
O=C1[C@H](CC2CC2)N2C(=O)CCN(C(=O)NCCCC(F)(F)F)[C@H]2CN1Cc1cccc2ccccc12	4 µg/mL (≈ 7.74 µM)	3500 nM	–
O=C1[C@H](CO)N2C(=O)CCN(C(=O)NCc3ccccc3)[C@H]2CN1Cc1cccc2ccccc12	64 µg/mL (≈ 135 µM)	4500 nM	–
CC[C@H](C)[C@H]1C(=O)N(Cc2ccc(C)c3ccccc23)C[C@@H]2N(C(=O)NCCCC(F)(F)F)CCC(=O)N12	0.25 µg/mL (≈ 0.469 µM)	1520 nM	–
CC[C@H](C)[C@H]1C(=O)N(Cc2cccc3ccccc23)C[C@@H]2N(C(=O)NCCCCCCl)CCC(=O)N12	> 128 µg/mL	> 40000 nM	–
CC[C@H](C)[C@H]1C(=O)N(Cc2cccc3ccccc23)C[C@@H]2N(C(=O)NCCC3CCOC3)CCC(=O)N12 (stereo partly drawn)	128 µg/mL (≈ 253 µM)	6900 nM	–
CC(C)[C@H]1C(=O)N(Cc2cccc3ccccc23)C[C@@H]2N(C(=O)NCCCC(F)(F)F)CCC(=O)N12	2 µg/mL (≈ 3.96 µM)	1600 nM	–
CC[C@H](C)[C@H]1C(=O)N(Cc2cccc3ccccc23)C[C@@H]2N(C(=O)NCCC(C)C)CCC(=O)N12	2 µg/mL (≈ 4.18 µM)	1900 nM	–
[N-]=[N+]=NCCC[C@H]1C(=O)N(Cc2cccc3ccccc23)C[C@@H]2N(C(=O)NCCCC(F)(F)F)CCC(=O)N21	2 µg/mL (≈ 3.67 µM)	1500 nM	–
CC[C@H](C)[C@H]1C(=O)N(Cc2cccc3ccccc23)C[C@@H]2N(C(=O)NCC(C)C)CCC(=O)N12	8 µg/mL (≈ 17.2 µM)	3800 nM	–
O=C1[C@H](Cc2ccc(O)cc2)N2C(=O)CCN(C(=O)NCc3ccccc3)[C@H]2CN1Cc1cccc2ccccc12	16 µg/mL (≈ 29.2 µM)	1100 nM	–
O=C1[C@H](Cc2ccccc2)N2C(=O)CCN(C(=O)NCc3ccccc3)[C@H]2CN1Cc1cccc2ccccc12	8 µg/mL (≈ 15 µM)	2900 nM	–
CC[C@H](C)[C@H]1C(=O)N(Cc2ccc(Br)c3ccccc23)C[C@@H]2N(C(=O)NCCCC(F)(F)F)CCC(=O)N12	4 µg/mL (≈ 6.69 µM)	1940 nM	–
CC[C@H](C)[C@H]1C(=O)N(Cc2cccc3ccccc23)C[C@@H]2N(C(=O)NCCCCCl)CCC(=O)N12	4 µg/mL (≈ 8.02 µM)	1100 nM	–
CC(C)C[C@H]1C(=O)N(Cc2cccc3ccccc23)C[C@@H]2N(C(=O)NCCCC(F)(F)F)CCC(=O)N21	4 µg/mL (≈ 7.71 µM)	1300 nM	–
CC[C@H](C)[C@H]1C(=O)N(Cc2cccc3ccccc23)C[C@@H]2N(C(=O)NCCC(C)=O)CCC(=O)N12	> 128 µg/mL	26100 nM	–
